Species: Rattus norvegicus
Assay: DrugMatrix - Regimen: Daily Repeat
Type: toxicity, organism-based, Sprague-Dawley
Parameters: regimen Daily Repeat, gender Male, age 6-8 weeks
Details: in vivo, po, route oral GAVAGE, […]; for ABSOLUTE BASOPHIL / ABSOLUTE EOSINOPHIL / ABSOLUTE LYMPHOCYTE / ABSOLUTE MONOCYTE / ABSOLUTE SEGMENTED NEUTROPHIL / BASOPHIL / EOSINOPHIL / ERYTHROCYTE COUNT / HEMATOCRIT / HEMOGLOBIN / LEUKOCYTE COUNT / LYMPHOCYTE / MEAN CORPUSCULAR HEMOGLOBIN / MEAN CORPUSCULAR HEMOGLOBIN CONCENTRATION / MEAN CORPUSCULAR VOLUME / MONOCYTE / NEUTROPHIL / NUCLEATED RED BLOOD CELLS / PLATELET COUNT: tissue Blood; for ALANINE AMINOTRANSFERASE / ALKALINE PHOSPHATASE / ASPARTATE AMINOTRANSFERASE / BLOOD UREA NITROGEN / CARBON DIOXIDE / CHLORIDE / CHOLESTEROL / CREATINE PHOSPHOKINASE / CREATININE / GLUCOSE / LACTATE DEHYDROGENASE / LIPASE / PHOSPHORUS / POTASSIUM / SODIUM / TOTAL BILIRUBIN / TOTAL PROTEIN / URIC ACID: tissue Plasma
[1] = 20.4 mg/kg, 72 h, dose level High, time 3 day
[2] = 20.4 mg/kg, 120 h, dose level High, time 5 day
[3] = 72 h, dose 2.7 mg/Kg, dose level Low, time 3 day
[4] = 120 h, dose 2.7 mg/Kg, dose level Low, time 5 day

Which results are given for `CC(C(=O)O)c1cccc(C(=O)c2ccccc2)c1` (stereo not drawn) [KETOPROFEN]?
ABSOLUTE BASOPHIL [1]: 0 CELLS/uL; ABSOLUTE EOSINOPHIL [1]: 0 CELLS/uL; ABSOLUTE LYMPHOCYTE [1]: 7267.67 CELLS/uL; ABSOLUTE MONOCYTE [1]: 314.33 CELLS/uL; ABSOLUTE SEGMENTED NEUTROPHIL [1]: 1618 CELLS/uL; BASOPHIL [1]: 0%; EOSINOPHIL [1]: 0%; ERYTHROCYTE COUNT [1]: 4.75 x10E6/uL; HEMATOCRIT [1]: 28.6%; HEMOGLOBIN [1]: 11.67 G/DL; LEUKOCYTE COUNT [1]: 9.2 x10E3/uL; LYMPHOCYTE [1]: 76.67%; MEAN CORPUSCULAR HEMOGLOBIN [1]: 24.67 pg; MEAN CORPUSCULAR HEMOGLOBIN CONCENTRATION [1]: 40.8 G/DL; MEAN CORPUSCULAR VOLUME [1]: 60.43 fL; MONOCYTE [1]: 3.33%; NEUTROPHIL [1]: 20%; NUCLEATED RED BLOOD CELLS [1]: 0.67 /100WBC; PLATELET COUNT [1]: 1067.67 x10E3/uL; ALANINE AMINOTRANSFERASE [1]: 31.67 u/L; ALKALINE PHOSPHATASE [1]: 297.33 u/L; ASPARTATE AMINOTRANSFERASE [1]: 95 u/L; BLOOD UREA NITROGEN [1]: 15.33 mg/dL; CARBON DIOXIDE [1]: 25.67 mmol/L; CHLORIDE [1]: 101.67 MEQ/L; CHOLESTEROL [1]: 70.33 mg/dL; CREATINE PHOSPHOKINASE [1]: 362.33 u/L; CREATININE [1]: 0.15 mg/dL; GLUCOSE [1]: 138.67 mg/dL; LACTATE DEHYDROGENASE [1]: 114 u/L; LIPASE [1]: 9.67 u/L; PHOSPHORUS [1]: 13.07 mg/dL; POTASSIUM [1]: 6.63 MEQ/L; SODIUM [1]: 141.23 MEQ/L; TOTAL BILIRUBIN [1]: 0.1 mg/dL; TOTAL PROTEIN [1]: 4.57 G/DL; URIC ACID [1]: 2.1 mg/dL; ABSOLUTE BASOPHIL [2]: 0 CELLS/uL; ABSOLUTE EOSINOPHIL [2]: 0 CELLS/uL; ABSOLUTE LYMPHOCYTE [2]: 10025.5 CELLS/uL; ABSOLUTE MONOCYTE [2]: 600.5 CELLS/uL; ABSOLUTE SEGMENTED NEUTROPHIL [2]: 1824 CELLS/uL; BASOPHIL [2]: 0%; EOSINOPHIL [2]: 0%; ERYTHROCYTE COUNT [2]: 4.91 x10E6/uL; HEMATOCRIT [2]: 29.7%; HEMOGLOBIN [2]: 12.2 G/DL; LEUKOCYTE COUNT [2]: 12.45 x10E3/uL; LYMPHOCYTE [2]: 76%; MEAN CORPUSCULAR HEMOGLOBIN [2]: 25 pg; MEAN CORPUSCULAR HEMOGLOBIN CONCENTRATION [2]: 41.05 G/DL; MEAN CORPUSCULAR VOLUME [2]: 60.85 fL; MONOCYTE [2]: 4.5%; NEUTROPHIL [2]: 19.5%; NUCLEATED RED BLOOD CELLS [2]: 1 /100WBC; PLATELET COUNT [2]: 1944 x10E3/uL; ALANINE AMINOTRANSFERASE [2]: 58 u/L; ALKALINE PHOSPHATASE [2]: 430 u/L; ASPARTATE AMINOTRANSFERASE [2]: 128 u/L; BLOOD UREA NITROGEN [2]: 17 mg/dL; CARBON DIOXIDE [2]: 21 mmol/L; CHLORIDE [2]: 99.5 MEQ/L; CHOLESTEROL [2]: 61.5 mg/dL; CREATINE PHOSPHOKINASE [2]: 682 u/L; CREATININE [2]: 0.13 mg/dL; GLUCOSE [2]: 127.5 mg/dL; LACTATE DEHYDROGENASE [2]: 391.5 u/L; LIPASE [2]: 20.5 u/L; PHOSPHORUS [2]: 14.15 mg/dL; POTASSIUM [2]: 8.29 MEQ/L; SODIUM [2]: 138.9 MEQ/L; TOTAL BILIRUBIN [2]: 0.15 mg/dL; TOTAL PROTEIN [2]: 5.05 G/DL; URIC ACID [2]: 3.2 mg/dL; ABSOLUTE BASOPHIL [3]: 0 CELLS/uL; ABSOLUTE EOSINOPHIL [3]: 0 CELLS/uL; ABSOLUTE LYMPHOCYTE [3]: 15950 CELLS/uL; ABSOLUTE MONOCYTE [3]: 68.67 CELLS/uL; ABSOLUTE SEGMENTED NEUTROPHIL [3]: 1814.67 CELLS/uL; BASOPHIL [3]: 0%; EOSINOPHIL [3]: 0%; ERYTHROCYTE COUNT [3]: 5.46 x10E6/uL; HEMATOCRIT [3]: 34.7%; HEMOGLOBIN [3]: 13.87 G/DL; LEUKOCYTE COUNT [3]: 17.83 x10E3/uL; LYMPHOCYTE [3]: 89.67%; MEAN CORPUSCULAR HEMOGLOBIN [3]: 25.4 pg; MEAN CORPUSCULAR HEMOGLOBIN CONCENTRATION [3]: 39.97 G/DL; MEAN CORPUSCULAR VOLUME [3]: 63.5 fL; MONOCYTE [3]: 0.33%; NEUTROPHIL [3]: 10%; NUCLEATED RED BLOOD CELLS [3]: 0.67 /100WBC; PLATELET COUNT [3]: 1051 x10E3/uL; ALANINE AMINOTRANSFERASE [3]: 83.33 u/L; ALKALINE PHOSPHATASE [3]: 375.67 u/L; ASPARTATE AMINOTRANSFERASE [3]: 100.33 u/L; BLOOD UREA NITROGEN [3]: 10.33 mg/dL; CARBON DIOXIDE [3]: 28.67 mmol/L; CHLORIDE [3]: 99.67 MEQ/L; CHOLESTEROL [3]: 74 mg/dL; CREATINE PHOSPHOKINASE [3]: 203.67 u/L; CREATININE [3]: 0.12 mg/dL; GLUCOSE [3]: 169 mg/dL; LACTATE DEHYDROGENASE [3]: 131.33 u/L; LIPASE [3]: 12 u/L; PHOSPHORUS [3]: 11.9 mg/dL; POTASSIUM [3]: 6.6 MEQ/L; SODIUM [3]: 141.63 MEQ/L; TOTAL BILIRUBIN [3]: 0.2 mg/dL; TOTAL PROTEIN [3]: 5.5 G/DL; URIC ACID [3]: 1.3 mg/dL; ABSOLUTE BASOPHIL [4]: 0 CELLS/uL; ABSOLUTE EOSINOPHIL [4]: 0 CELLS/uL; ABSOLUTE LYMPHOCYTE [4]: 13468.33 CELLS/uL; ABSOLUTE MONOCYTE [4]: 227.67 CELLS/uL; ABSOLUTE SEGMENTED NEUTROPHIL [4]: 2570.67 CELLS/uL; BASOPHIL [4]: 0%; EOSINOPHIL [4]: 0%; ERYTHROCYTE COUNT [4]: 5.73 x10E6/uL; HEMATOCRIT [4]: 35.13%; HEMOGLOBIN [4]: 14.03 G/DL; LEUKOCYTE COUNT [4]: 16.27 x10E3/uL; LYMPHOCYTE [4]: 83%; MEAN CORPUSCULAR HEMOGLOBIN [4]: 24.5 pg; MEAN CORPUSCULAR HEMOGLOBIN CONCENTRATION [4]: 39.97 G/DL; MEAN CORPUSCULAR VOLUME [4]: 61.33 fL; MONOCYTE [4]: 1.33%; NEUTROPHIL [4]: 15.67%; NUCLEATED RED BLOOD CELLS [4]: 0 /100WBC; PLATELET COUNT [4]: 1235.67 x10E3/uL; ALANINE AMINOTRANSFERASE [4]: 64.67 u/L; ALKALINE PHOSPHATASE [4]: 363.67 u/L; ASPARTATE AMINOTRANSFERASE [4]: 74 u/L; BLOOD UREA NITROGEN [4]: 13.67 mg/dL; CARBON DIOXIDE [4]: 31.67 mmol/L; CHLORIDE [4]: 100.67 MEQ/L; CHOLESTEROL [4]: 64.33 mg/dL; CREATINE PHOSPHOKINASE [4]: 125.67 u/L; CREATININE [4]: 0.17 mg/dL; GLUCOSE [4]: 146.67 mg/dL; LACTATE DEHYDROGENASE [4]: 78 u/L; LIPASE [4]: 11.67 u/L; PHOSPHORUS [4]: 9.8 mg/dL; POTASSIUM [4]: 6.54 MEQ/L; SODIUM [4]: 143.77 MEQ/L; TOTAL BILIRUBIN [4]: 0.13 mg/dL; TOTAL PROTEIN [4]: 5.8 G/DL; URIC ACID [4]: 1.17 mg/dL

Reference: ChEMBL document CHEMBL3885881, “DrugMatrix”
